Type in all cases: cell-based
One assay addresses T1, RARβ (Homo sapiens, UniProt P10826).
T1 construct: expressed in transfected cells; host or cells: CV1 cells
T1 sequence (P10826 1-455): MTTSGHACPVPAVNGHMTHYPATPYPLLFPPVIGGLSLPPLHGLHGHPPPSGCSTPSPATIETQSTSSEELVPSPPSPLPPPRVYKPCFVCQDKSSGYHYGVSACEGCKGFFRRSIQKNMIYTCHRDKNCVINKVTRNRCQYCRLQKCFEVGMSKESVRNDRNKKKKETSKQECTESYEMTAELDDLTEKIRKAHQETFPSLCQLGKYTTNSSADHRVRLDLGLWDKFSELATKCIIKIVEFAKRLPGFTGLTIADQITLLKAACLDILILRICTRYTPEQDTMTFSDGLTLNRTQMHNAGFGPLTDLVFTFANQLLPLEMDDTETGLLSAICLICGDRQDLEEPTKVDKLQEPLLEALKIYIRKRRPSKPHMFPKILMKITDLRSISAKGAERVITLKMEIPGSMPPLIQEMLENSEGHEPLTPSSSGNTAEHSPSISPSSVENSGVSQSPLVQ
The experiment in a line: Holoreceptor transactivation assay, RARβ. As to conditions: for EC50: CV1 cells, luciferase reporter, 36 hours incubation; for Transactivation Assay Afficacy (% of RA activity) RARβ: relative to all trans retinoic acid. As for the experimental part: (§1) A description of the holoreceptor transactivation assay is also provided below.
(§2) (8). […] (8, 9). […] A β-galactosidase (50 ng) expression vector was used as an internal control in the transfections to normalize for variations in transfection efficiency. The cells were transfected in triplicate for 6 hours, followed by incubation with retinoids for 36 hours, and the extracts were assayed for luciferase and β-galactosidase activities. The detailed experimental procedure for holoreceptor transactivations has been described in Heyman et al. above, and Allegretto et al. cited above. […] The results of ligand binding assay are expressed in KD50 numbers.

The next assay has as its target T2, RXRβ (Mus musculus, UniProt P28704).
T2 sequence (P28704 1-520): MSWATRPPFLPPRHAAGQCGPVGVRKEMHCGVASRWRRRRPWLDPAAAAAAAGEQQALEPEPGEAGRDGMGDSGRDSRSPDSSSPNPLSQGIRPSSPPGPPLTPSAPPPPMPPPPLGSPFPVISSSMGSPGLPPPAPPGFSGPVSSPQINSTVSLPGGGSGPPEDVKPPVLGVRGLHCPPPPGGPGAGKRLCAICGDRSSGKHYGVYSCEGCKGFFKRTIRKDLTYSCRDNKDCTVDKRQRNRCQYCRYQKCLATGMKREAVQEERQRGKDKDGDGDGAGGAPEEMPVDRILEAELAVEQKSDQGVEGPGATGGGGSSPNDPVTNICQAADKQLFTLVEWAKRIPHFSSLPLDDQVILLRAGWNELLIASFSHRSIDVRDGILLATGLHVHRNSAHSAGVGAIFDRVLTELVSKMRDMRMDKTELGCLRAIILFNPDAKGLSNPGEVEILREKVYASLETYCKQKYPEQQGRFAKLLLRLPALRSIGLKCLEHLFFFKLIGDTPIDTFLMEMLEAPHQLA
As to the kind of experiment: Holoreceptor transactivation assay, RXRβ. Particulars: relative to all trans retinoic acid; read-out: Transactivation Assay Afficacy (% of RA activity) RXRβ. As for the experimental part:
as §1, §2

Another assay deals with T3, RXRΓ (Mus musculus, UniProt P28705).
T3 construct: expressed in transfected cells; host or cells: CV1 cells
T3 sequence (P28705 1-463): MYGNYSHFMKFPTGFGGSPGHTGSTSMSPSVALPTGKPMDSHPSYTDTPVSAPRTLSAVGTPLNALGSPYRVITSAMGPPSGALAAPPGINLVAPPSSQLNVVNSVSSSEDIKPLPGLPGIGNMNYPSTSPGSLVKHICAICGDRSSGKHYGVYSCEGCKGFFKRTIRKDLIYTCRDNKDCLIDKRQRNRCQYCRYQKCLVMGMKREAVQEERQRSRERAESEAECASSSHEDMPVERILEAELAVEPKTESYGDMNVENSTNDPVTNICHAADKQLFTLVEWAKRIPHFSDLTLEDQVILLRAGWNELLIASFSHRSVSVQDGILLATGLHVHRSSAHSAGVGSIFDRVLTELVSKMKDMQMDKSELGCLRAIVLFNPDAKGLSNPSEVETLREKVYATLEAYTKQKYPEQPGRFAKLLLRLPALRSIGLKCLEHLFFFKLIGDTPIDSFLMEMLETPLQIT
As to the kind of experiment: Holoreceptor transactivation assay, RXRΓ. As to conditions: for EC50: CV1 cells, luciferase reporter, 36 hours incubation; for Transactivation Assay Afficacy (% of RA activity) RXRΓ: relative to all trans retinoic acid. As for the experimental part:
as §1, §2
On the technique in general: Reporter assays use an easily measured gene product as a stand-in for the process of interest.

The values below come from US20020082419A1, “2,4-pentadienoic acid derivatives having retinoid-like biological activity” (Allergan Sales, Inc., priority 1995, published 2002).

What is called EC50 is the concentration that produces a half-maximal response. For `CC(/C=C/c1ccccc1-c1ccc2c(c1)C(C)(C)CCC2(C)C)=C\C(=O)O` [Compound 9, 3-Methyl-5-[2-(5,5,8,8,-tetramethyl-5,6,7,8-tetrahydronaphth-2-yl)phenyl]pent-2(E),4(E)-dienoic Acid], on RARβ, the EC50 is more than 1000 nM and the “Transactivation Assay Afficacy (% of RA activity) RARβ” value is on record as 8.0 % of RA activity. Further, the Emax on RXRβ amounted to 94%. Besides, on RXRΓ, the midpoint of the response, the EC50, lay at 240 nM and the “Transactivation Assay Afficacy (% of RA activity) RXRΓ” value is given as 50.0 % of RA activity.
Turning to `CC(C=CC1CC1(C)c1cc2c(cc1C)C(C)(C)CCC2(C)C)=CC(=O)O` (stereo not drawn) [Compound 13, 3,7-Dimethyl,6(RS),7(SR) methano-7-(3,5,5,8,8-pentamethyl-5,6,7,8-tetrahydronaphth-2-yl),2(E),4(E)-heptadienoic Acid], at RARβ, the EC50 was more than 1000 nM and the “Transactivation Assay Afficacy (% of RA activity) RARβ” value is given as 3.0 % of RA activity. Besides, the Emax on RXRβ worked out at 72%. At RXRΓ, the EC50 is 71 nM and the “Transactivation Assay Afficacy (% of RA activity) RXRΓ” value was 40.0 % of RA activity.
For the compound `CC(C=CC1CC1(C)c1ccc2c(c1)C(C)(C)CCS2)=CC(=O)O` (stereo not drawn) [Compound 17, 3,7-Dimethyl,6(RS),7(SR) methano-7-(4,4-dimethylthiochroman-6-yl) 2(E),4(E)-heptadienoic Acid], at RARβ, the midpoint of the response, the EC50, lay at 48 nM and the “Transactivation Assay Afficacy (% of RA activity) RARβ” value is on record as 29 % of RA activity. Moreover, at RXRβ, the Emax is 118%. Moreover, at RXRΓ, a half-maximal effect (EC50) was put at 13 nM and the “Transactivation Assay Afficacy (% of RA activity) RXRΓ” value is listed as 73 % of RA activity.
The corresponding values for `CC(C=CC1CC1(C)c1ccc2c(c1)C(C)(C)CCO2)=CC(=O)O` (stereo not drawn) [Compound 21, 3,7-Dimethyl,6(RS),7(SR) methano-7-(4,4-dimethyl-chroman-6-yl),2(E),4(E)-heptadienoic Acid] are 1800 nM, 26.0 % of RA activity, 93%, 29 nM and 85.0 % of RA activity.
